Assay results as given in the supplement of paper PMC8967900.

What was measured:
Assay in all cases: selective drug sensitivity score (sDSS, relative to normal bone marrow) (sDSS (score)); higher = more potent and effective on the cell line relative to normal bone marrow cells
Details in all cases: 72 h
MHH-CALL-3 = test system: MHH-CALL-3
KASUMI-2 = test system: KASUMI-2
CCRF-HSB2 = test system: CCRF-HSB2
DND-41 = test system: DND-41
SUP-B15 = test system: SUP-B15
NALM-16 = test system: NALM-16
COG-LL-355h = test system: COG-LL-355h
REH = test system: REH
KOPN-8 = test system: KOPN-8
TANOUE = test system: TANOUE
PEER = test system: PEER
RPMI-8402 = test system: RPMI-8402
COG-LL-394h = test system: COG-LL-394h
MOLT-4 = test system: MOLT-4
KASUMI-9 = test system: KASUMI-9
PF-382 = test system: PF-382
HAL-01 = test system: HAL-01
NALL-1 = test system: NALL-1
KASUMI-10 = test system: KASUMI-10
MOLT-16 = test system: MOLT-16
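Note: ALL cell lines in 384-well plates, five doses spanning 10,000-fold, each plate scaled between vehicle and 100 µmol/L benzalkonium chloride controls, sDSS an adapted area-under-curve metric.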

Structure (SMILES) | selective drug sensitivity score (MHH-CALL-3) | selective drug sensitivity score (KASUMI-2) | selective drug sensitivity score (CCRF-HSB2) | selective drug sensitivity score (DND-41) | selective drug sensitivity score (SUP-B15) | selective drug sensitivity score (NALM-16) | selective drug sensitivity score (COG-LL-355h) | selective drug sensitivity score (REH) | selective drug sensitivity score (KOPN-8) | selective drug sensitivity score (TANOUE) | selective drug sensitivity score (PEER) | selective drug sensitivity score (RPMI-8402) | selective drug sensitivity score (COG-LL-394h) | selective drug sensitivity score (MOLT-4) | selective drug sensitivity score (KASUMI-9) | selective drug sensitivity score (PF-382) | selective drug sensitivity score (HAL-01) | selective drug sensitivity score (NALL-1) | selective drug sensitivity score (KASUMI-10) | selective drug sensitivity score (MOLT-16)
Cc1nc(NC(=O)N2CCC[C@H]2C(N)=O)sc1-c1ccnc(C(C)(C)C(F)(F)F)c1 [Alpelisib] (top concentration 2500 nM) | -0.82 | 1.98 | 1.68 | -0.82 | -0.82 | 1.38 | 5.98 | -0.12 | 5.38 | -0.82 | -0.42 | -0.02 | 0.78 | 0.88 | 1.18 | 0.48 | 0.78 | -0.82 | -0.12 | -0.72
CO[C@H](C(=O)[C@@H](O)[C@@H](C)O)[C@@H]1Cc2cc3cc(O[C@H]4C[C@@H](O[C@H]5C[C@@H](O)[C@H](O)[C@@H](C)O5)[C@@H](O)[C@@H](C)O4)c(C)c(O)c3c(O)c2C(=O)[C@H]1O[C@H]1C[C@@H](O[C@H]2C[C@@H](O[C@H]3C[C@](C)(O)[C@H](O)[C@@H](C)O3)[C@H](O)[C@@H](C)O2)[C@H](O)[C@@H](C)O1 [Plicamycin] (top concentration 10000 nM) | 5.34 | -17.2 | -5.26 | 0.44 | -15.6 | 2.74 | -15.4 | -13.4 | -17.8 | -14.4 | -12.8 | -5.86 | 0.04 | -6.26 | -17.5 | -12.1 | -17.9 | -17 | -2.36 | -5.06
O=C(Nc1c[nH]nc1-c1nc2ccc(CN3CCOCC3)cc2[nH]1)NC1CC1 [AT9283] (top concentration 1000 nM) | 10.4 | 6.22 | 11.4 | -0.68 | 12.6 | -0.68 | 6.22 | 11.6 | 10.3 | -4.38 | 15.9 | 4.32 | 1.02 | 3.72 | 10.7 | 7.72 | 1.92 | 9.02 | 8.42 | 8.22
C[C@@H]1COCCN1c1cc(C2([S@](C)(=N)=O)CC2)nc(-c2cc[nH]c3nccc2-3)n1 [AZD6738] (top concentration 25000 nM) | 12.2 | 1.38 | 4.58 | 8.58 | 9.68 | 0.68 | 6.18 | 13.1 | 15.5 | -6.12 | 5.88 | 8.98 | -2.72 | 8.78 | 8.38 | 4.68 | 9.58 | 7.68 | 8.08 | 13
Cn1cc(CNCC2CCN(c3ncc(C(=O)NO)cn3)CC2)c2ccccc21 [Quisinostat] (top concentration 1000 nM) | 17 | 12.4 | 1.28 | 2.98 | 10.1 | -1.32 | 6.38 | -1.12 | 10.5 | -7.62 | 2.88 | 5.58 | 6.78 | 2.98 | 9.78 | 2.08 | -5.02 | -0.72 | 7.38 | 6.28
COCCNCc1ccc(-c2cc3nccc(Oc4ccc(NC(=O)C5(C(=O)Nc6ccc(F)cc6)CC5)cc4F)c3s2)nc1 [Sitravatinib] (top concentration 2500 nM) | -0.42 | -0.42 | 9.28 | 0.98 | 8.68 | 2.78 | 2.58 | 2.88 | 8.08 | -0.42 | 7.38 | 2.38 | 3.08 | 0.78 | 3.58 | 1.08 | 5.28 | 9.38 | 20 | -0.42
COCC[n+]1c2c(n(Cc3cnccn3)c1C)C(=O)c1ccccc1C2=O [Sepantronium_bromide] (top concentration 10000 nM) | 22.3 | 19.5 | 14.6 | -7.46 | 22.3 | 22.2 | 15.5 | 17.8 | 22.8 | 14.7 | 15.1 | 7.64 | -11.7 | 15.9 | 16.2 | 14.1 | -12.6 | 16.2 | 18.6 | 12.7
C[C@@H]1COC(Nc2ccc3ncnc(Nc4ccc(OCc5nccs5)c(Cl)c4)c3c2)=N1 [Varlitinib] (top concentration 10000 nM) | -0.18 | -0.18 | 0.12 | -0.18 | 6.82 | 0.92 | 0.92 | 7.62 | 8.32 | -0.18 | 0.12 | 4.92 | -0.18 | -0.18 | 4.72 | -0.18 | -0.18 | -0.18 | -0.18 | -0.18
CN(c1ncccc1CNc1nc(Nc2ccc3c(c2)CC(=O)N3)ncc1C(F)(F)F)S(C)(=O)=O (top concentration 10000 nM) | 4.82 | -0.38 | 1.42 | 0.62 | 4.62 | 0.42 | 0.82 | 5.12 | 1.02 | -3.98 | 7.22 | 1.52 | -0.08 | 1.02 | 0.12 | -0.78 | -0.18 | 2.42 | 6.62 | 2.82
